Results published in PMC9556824, “Design, synthesis and computational study of new benzofuran hybrids as dual PI3K/VEGFR2 inhibitors targeting cancer” (Scientific Reports, 2022).
Like-named read-outs stand apart in the source and are kept apart here.

Tests used:
[1] = test system: Hepatocellular carcinoma (HePG2); assay: Antitumor screening using MTT assay; assay type: cell-based, human; conditions: for IC50: mean ± SD, n = 3, read-out: In-vitro cytotoxicity IC50 (µM) HePG2; for viability at 1.56 µM / viability at 3.125 µM / viability at 6.25 µM / viability at 12.5 µM / viability at 25 µM / viability at 50 µM / viability at 100 µM: read-out: Average of Relative viability of cells (%)
From the text: (§2) Hepatocellular carcinoma (HePG2), mammary gland breast cancer (MCF-7), epithelioid carcinoma cervix cancer (Hela), and human prostate cancer were included on the panel (PC3). […] The cell lines were obtained from the American Type Culture Collection (ATCC) through VACSERA, a Cairo-based holding firm for biological goods and vaccines.
(§3) The panel consisted of hepatocellular carcinoma (HePG2), mammary gland breast cancer (MCF-7), epithelioid carcinoma cervix cancer (Hela) and human prostate cancer (PC3). Human lung fibroblast (WI38) was used to assay the cytotoxicity effect on normal cell. The cell lines were obtained from ATCC via Holding company for biological products and vaccines (VACSERA), Cairo, Egypt. The cytotoxic activity was defined as the concentration of the compound that causes 50% growth inhibition compared with the growth of untreated cells.

[2] = test system: human lung fibroblast (WI38); assay: In vitro cytotoxicity against human normal cell line (MTT); assay type: cell-based; conditions: for Average of Relative viability of cells (%): WI38; for IC50: mean ± SD, n = 3
From the text: (§1) The anticancer agent's selectivity for cancer cells is a critical consideration for any researcher, as it can decrease the molecule's adverse effects on normal human cells.

[3] = test system: HePG2, MCF-7, Hela, PC3 cell lines; assay: Antitumor screening using MTT assay, statements across several cell lines; assay type: cell-based, human; conditions: HePG2, MCF-7, Hela, PC3
From the text: as §2, §3

[4] = test system: mammary gland breast cancer (MCF-7); assay: Antitumor screening using MTT assay; conditions: for Average of Relative viability of cells (%): MCF7; for viability at 1.56 µM / viability at 3.125 µM / viability at 6.25 µM / viability at 12.5 µM / viability at 25 µM / viability at 50 µM / viability at 100 µM: MCF7, read-out: Average of Relative viability of cells (%)
From the text: as §2, §3

[5] = test system: epithelioid carcinoma cervix cancer (Hela); assay: Antitumor screening using MTT assay; conditions: for IC50: read-out: In-vitro cytotoxicity IC50 (µM) Hela; for viability at 1.56 µM / viability at 3.125 µM / viability at 6.25 µM / viability at 12.5 µM / viability at 25 µM / viability at 50 µM / viability at 100 µM: read-out: Average of Relative viability of cells (%)
From the text: as §2, §3

[6] = test system: human prostate cancer (PC3); assay: Antitumor screening using MTT assay; conditions: for IC50: read-out: In-vitro cytotoxicity IC50 (µM) PC3; for viability at 1.56 µM / viability at 3.125 µM / viability at 6.25 µM / viability at 12.5 µM / viability at 25 µM / viability at 50 µM / viability at 100 µM: read-out: Average of Relative viability of cells (%)
From the text: as §2, §3

[7] = target: human PI3Kα (Homo sapiens, UniProt P42336); assay: Human PI3Kα enzyme inhibition assay (ELISA)
Protocol: PI3Kα and VEGFR-2 activity were verified by enzyme-linked immunosorbent assay (ELISA) assay technique. […] Then, the mean absorbance of each group of standard and tested compounds was determined. The standard curve was drawn on log–log paper with the absorbance on the Y-axis and the standard concentration on the X-axis.

[8] = In vitro cytotoxicity against human normal cell line (MTT); assay type: cell-based; conditions: human, WI38 human lung fibroblast cells (normal cell line), WI38, read-out: Average of Relative viability of cells (%); for viability at 1.56 µM: Conc. 1.56 µM; for viability at 3.125 µM: Conc. 3.125 µM; for viability at 6.25 µM: Conc. 6.25 µM; for viability at 12.5 µM: Conc. 12.5 µM; for viability at 25 µM: Conc. 25 µM; for viability at 50 µM: Conc. 50 µM; for viability at 100 µM: Conc. 100 µM
From the text: as §1

[9] = Homo sapiens, WI-38, human normal cell line WI38
[10] = Homo sapiens, MCF7, read-out: In-vitro cytotoxicity IC50 (µM) MCF-7

Chain of human PI3Kα (P42336 whole entry): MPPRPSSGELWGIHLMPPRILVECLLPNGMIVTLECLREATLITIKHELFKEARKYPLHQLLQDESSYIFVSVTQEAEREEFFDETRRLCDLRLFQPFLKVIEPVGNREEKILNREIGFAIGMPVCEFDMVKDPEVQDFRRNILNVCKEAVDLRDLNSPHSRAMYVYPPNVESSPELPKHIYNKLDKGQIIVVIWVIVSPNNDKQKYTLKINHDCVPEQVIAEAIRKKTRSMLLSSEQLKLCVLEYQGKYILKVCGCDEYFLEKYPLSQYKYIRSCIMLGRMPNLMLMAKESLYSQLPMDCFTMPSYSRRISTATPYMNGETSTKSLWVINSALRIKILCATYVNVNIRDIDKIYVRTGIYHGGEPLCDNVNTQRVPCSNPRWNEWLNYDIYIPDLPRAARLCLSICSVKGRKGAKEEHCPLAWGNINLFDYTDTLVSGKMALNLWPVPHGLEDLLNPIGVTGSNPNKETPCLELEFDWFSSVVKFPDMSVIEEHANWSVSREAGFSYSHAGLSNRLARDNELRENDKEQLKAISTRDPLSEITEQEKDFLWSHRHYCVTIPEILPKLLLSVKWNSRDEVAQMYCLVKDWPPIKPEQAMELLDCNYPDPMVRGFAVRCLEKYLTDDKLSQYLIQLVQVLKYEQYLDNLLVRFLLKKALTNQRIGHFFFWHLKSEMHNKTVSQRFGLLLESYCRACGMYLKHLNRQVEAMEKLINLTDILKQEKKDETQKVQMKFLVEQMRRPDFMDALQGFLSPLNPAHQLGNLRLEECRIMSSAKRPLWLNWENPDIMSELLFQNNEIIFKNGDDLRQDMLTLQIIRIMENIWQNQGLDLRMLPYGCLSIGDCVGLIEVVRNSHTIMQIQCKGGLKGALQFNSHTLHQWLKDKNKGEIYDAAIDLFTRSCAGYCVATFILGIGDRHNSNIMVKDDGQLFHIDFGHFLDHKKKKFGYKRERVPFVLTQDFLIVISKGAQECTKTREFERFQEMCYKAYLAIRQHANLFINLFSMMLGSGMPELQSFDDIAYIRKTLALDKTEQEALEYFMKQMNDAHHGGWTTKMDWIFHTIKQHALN
Chain of human PI3Kα (P27986 whole entry partner): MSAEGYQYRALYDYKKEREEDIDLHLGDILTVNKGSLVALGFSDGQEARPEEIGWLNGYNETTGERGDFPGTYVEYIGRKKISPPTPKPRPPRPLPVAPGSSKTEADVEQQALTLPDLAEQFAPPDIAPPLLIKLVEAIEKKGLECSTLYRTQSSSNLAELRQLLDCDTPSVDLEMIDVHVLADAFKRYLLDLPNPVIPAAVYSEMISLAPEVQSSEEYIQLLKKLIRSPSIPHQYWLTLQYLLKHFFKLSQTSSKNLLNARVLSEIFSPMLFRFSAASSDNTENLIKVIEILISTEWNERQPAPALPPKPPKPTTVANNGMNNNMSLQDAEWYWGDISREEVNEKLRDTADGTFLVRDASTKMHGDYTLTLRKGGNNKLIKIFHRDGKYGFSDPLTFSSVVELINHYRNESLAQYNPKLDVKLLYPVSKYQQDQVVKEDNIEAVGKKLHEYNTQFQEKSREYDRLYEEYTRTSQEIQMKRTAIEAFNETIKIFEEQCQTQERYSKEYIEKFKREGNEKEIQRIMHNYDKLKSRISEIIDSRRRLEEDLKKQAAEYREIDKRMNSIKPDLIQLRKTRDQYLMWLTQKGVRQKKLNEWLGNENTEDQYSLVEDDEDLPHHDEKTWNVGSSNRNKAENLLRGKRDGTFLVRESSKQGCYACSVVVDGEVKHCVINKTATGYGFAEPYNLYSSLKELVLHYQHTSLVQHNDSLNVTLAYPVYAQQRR

2-(benzofuran-2-yl)-1-(4-methylpiperazin-1-yl)ethanethione [Compound 3]
Average of Relative viability of cells (%) ([1]; Conc. 1.56 µM): 100%
Average of Relative viability of cells (%) ([1]; Conc. 3.125 µM): 100%
Average of Relative viability of cells (%) ([1]; Conc. 6.25 µM): 82.4%
Average of Relative viability of cells (%) ([1]; Conc. 12.5 µM): 76.1%
Average of Relative viability of cells (%) ([1]; Conc. 25 µM): 50.2%
Average of Relative viability of cells (%) ([1]; Conc. 50 µM): 42.8%
Average of Relative viability of cells (%) ([1]; Conc. 100 µM): 29.5%
IC50 [1]: 34.8 ± 2.5 µM
Average of Relative viability of cells (%) ([2]; Conc. 1.56 µM): 100%
Average of Relative viability of cells (%) ([2]; Conc. 3.125 µM): 100%
Average of Relative viability of cells (%) ([2]; Conc. 6.25 µM): 97.0%
Average of Relative viability of cells (%) ([2]; Conc. 12.5 µM): 85.3%
Average of Relative viability of cells (%) ([2]; Conc. 25 µM): 71.8%
Average of Relative viability of cells (%) ([2]; Conc. 50 µM): 59.2%
Average of Relative viability of cells (%) ([2]; Conc. 100 µM): 47.4%
IC50 ([2]; human normal cell line WI38): 78.5 ± 3.8 µM
anticancer activity towards the four / all assessed cell lines (grade) [3]: weak (51–100 (weak))
Average of Relative viability of cells (%) ([4]; Conc. 1.56 µM): 100%
Average of Relative viability of cells (%) ([4]; Conc. 3.125 µM): 100%
Average of Relative viability of cells (%) ([4]; Conc. 6.25 µM): 94.7%
Average of Relative viability of cells (%) ([4]; Conc. 12.5 µM): 72.4%
Average of Relative viability of cells (%) ([4]; Conc. 25 µM): 61.3%
Average of Relative viability of cells (%) ([4]; Conc. 50 µM): 47.6%
Average of Relative viability of cells (%) ([4]; Conc. 100 µM): 33.9%
IC50 ([4]; read-out: In-vitro cytotoxicity IC50 (µM) MCF-7, MCF-7, mean ± SD, n = 3): 45.1 ± 2.9 µM
Average of Relative viability of cells (%) ([5]; Hela, Conc. 1.56 µM): 100%
Average of Relative viability of cells (%) ([5]; Hela, Conc. 3.125 µM): 100%
Average of Relative viability of cells (%) ([5]; Hela, Conc. 6.25 µM): 97.1%
Average of Relative viability of cells (%) ([5]; Hela, Conc. 12.5 µM): 75.9%
Average of Relative viability of cells (%) ([5]; Hela, Conc. 25 µM): 64.8%
Average of Relative viability of cells (%) ([5]; Hela, Conc. 50 µM): 50.7%
Average of Relative viability of cells (%) ([5]; Hela, Conc. 100 µM): 36.1%
IC50 ([5]; Hela, mean ± SD, n = 3): 51.4 ± 3.1 µM
Average of Relative viability of cells (%) ([6]; PC3, Conc. 1.56 µM): 100%
Average of Relative viability of cells (%) ([6]; PC3, Conc. 3.125 µM): 100%
Average of Relative viability of cells (%) ([6]; PC3, Conc. 6.25 µM): 100%
Average of Relative viability of cells (%) ([6]; PC3, Conc. 12.5 µM): 92.8%
Average of Relative viability of cells (%) ([6]; PC3, Conc. 25 µM): 71.9%
Average of Relative viability of cells (%) ([6]; PC3, Conc. 50 µM): 59.5%
Average of Relative viability of cells (%) ([6]; PC3, Conc. 100 µM): 37.5%
IC50 ([6]; PC3, mean ± SD, n = 3): 65 ± 3.2 µM

O=c1cc(N2CCOCC2)oc2c(-c3ccccc3)cccc12 [LY294002, reference compound]
PI3K-α %inh ([7]; conc 0.1 (unit not given)): 8.66%
PI3K-α %inh ([7]; conc 1 (unit not given)): 21.2%
PI3K-α %inh ([7]; conc 10 (unit not given)): 54.8%
PI3K-α %inh ([7]; conc 100 (unit not given)): 76.7%

C\C(=N/N=C/C=C/c1ccccc1)c1cc2ccccc2o1 [Compound 12]
viability at 1.56 µM ([1]; Homo sapiens, Conc. 1.56 µM): 100%
viability at 3.125 µM ([1]; Homo sapiens, Conc. 3.125 µM): 100%
viability at 6.25 µM ([1]; Homo sapiens, Conc. 6.25 µM): 100%
viability at 12.5 µM ([1]; Homo sapiens, Conc. 12.5 µM): 91.3%
viability at 25 µM ([1]; Homo sapiens, Conc. 25 µM): 70.5%
viability at 50 µM ([1]; Homo sapiens, Conc. 50 µM): 54%
viability at 100 µM ([1]; Homo sapiens, Conc. 100 µM): 39.4%
IC50 ([1]; Homo sapiens): 62 ± 3.2 µM
viability at 1.56 µM [8]: 100%
viability at 3.125 µM [8]: 100%
viability at 6.25 µM [8]: 91.3%
viability at 12.5 µM [8]: 78.1%
viability at 25 µM [8]: 61.9%
viability at 50 µM [8]: 52.5%
viability at 100 µM [8]: 41%
IC50 [2, 9]: 56.5 ± 3.2 µM
melting point: 141 to 143 °C
viability at 1.56 µM ([4]; Homo sapiens): 100%
viability at 3.125 µM ([4]; Homo sapiens): 100%
viability at 6.25 µM ([4]; Homo sapiens): 94.7%
viability at 12.5 µM ([4]; Homo sapiens): 81.8%
viability at 25 µM ([4]; Homo sapiens): 70.2%
viability at 50 µM ([4]; Homo sapiens): 57.1%
viability at 100 µM ([4]; Homo sapiens): 43.2%
IC50 [4, 10]: 68.4 ± 3.6 µM
viability at 1.56 µM ([5]; Homo sapiens, HeLa): 100%
viability at 3.125 µM ([5]; Homo sapiens, HeLa): 100%
viability at 6.25 µM ([5]; Homo sapiens, HeLa): 86.6%
viability at 12.5 µM ([5]; Homo sapiens, HeLa): 72.3%
viability at 25 µM ([5]; Homo sapiens, HeLa): 59.2%
viability at 50 µM ([5]; Homo sapiens, HeLa): 41.8%
viability at 100 µM ([5]; Homo sapiens, HeLa): 34.1%
IC50 ([5]; Homo sapiens, HeLa): 39.8 ± 2.7 µM
viability at 1.56 µM ([6]; Homo sapiens): 100%
viability at 3.125 µM ([6]; Homo sapiens): 100%
viability at 6.25 µM ([6]; Homo sapiens): 98.4%
viability at 12.5 µM ([6]; Homo sapiens): 86.6%
viability at 25 µM ([6]; Homo sapiens): 71.7%
viability at 50 µM ([6]; Homo sapiens): 55%
viability at 100 µM ([6]; Homo sapiens): 47.3%
IC50 ([6]; Homo sapiens): 74.4 ± 3.9 µM

C/C(=N\N=C\c1ccc(O)cc1)c1cc2ccccc2o1 [Compound 11, (E)-1-[1-(benzofuran-2-yl)ethylidene]-2-((E)-4-hydroxybenzylidene)hydrazine]
IC50 ([1]; Homo sapiens): 84.9 ± 3.2 µM
IC50 [2, 9]: 43.2 ± 2.9 µM
melting point: 154 to 156 °C
IC50 [4, 10]: > 100 µM
IC50 ([5]; Homo sapiens, HeLa): 89.3 ± 3.2 µM
IC50 ([6]; Homo sapiens): > 100 µM

O=C(/C=C/N1CCCCC1)c1cc2ccccc2o1 [Compound 5, (E)-1-(benzofuran-2-yl)-3-(piperidin-1-yl)prop-2-en-1-one]
viability at 1.56 µM ([1]; Homo sapiens, Conc. 1.56 µM): 100%
viability at 3.125 µM ([1]; Homo sapiens, Conc. 3.125 µM): 76.8%
viability at 6.25 µM ([1]; Homo sapiens, Conc. 6.25 µM): 65%
viability at 12.5 µM ([1]; Homo sapiens, Conc. 12.5 µM): 42.3%
viability at 25 µM ([1]; Homo sapiens, Conc. 25 µM): 37.2%
viability at 50 µM ([1]; Homo sapiens, Conc. 50 µM): 24%
viability at 100 µM ([1]; Homo sapiens, Conc. 100 µM): 15.3%
IC50 ([1]; Homo sapiens): 12.6 ± 1 µM
viability at 1.56 µM [8]: 100%
viability at 3.125 µM [8]: 100%
viability at 6.25 µM [8]: 100%
viability at 12.5 µM [8]: 91.8%
viability at 25 µM [8]: 72.3%
viability at 50 µM [8]: 57.1%
viability at 100 µM [8]: 38.2%
IC50 [2, 9]: 64 ± 3.1 µM
melting point: 136 to 138 °C
viability at 1.56 µM ([4]; Homo sapiens): 100%
viability at 3.125 µM ([4]; Homo sapiens): 96.2%
viability at 6.25 µM ([4]; Homo sapiens): 72.1%
viability at 12.5 µM ([4]; Homo sapiens): 54.9%
viability at 25 µM ([4]; Homo sapiens): 41.8%
viability at 50 µM ([4]; Homo sapiens): 32.5%
viability at 100 µM ([4]; Homo sapiens): 20.4%
IC50 [4, 10]: 19.9 ± 1.5 µM
viability at 1.56 µM ([5]; Homo sapiens, HeLa): 100%
viability at 3.125 µM ([5]; Homo sapiens, HeLa): 96.6%
viability at 6.25 µM ([5]; Homo sapiens, HeLa): 79.3%
viability at 12.5 µM ([5]; Homo sapiens, HeLa): 62.9%
viability at 25 µM ([5]; Homo sapiens, HeLa): 51.4%
viability at 50 µM ([5]; Homo sapiens, HeLa): 38.1%
viability at 100 µM ([5]; Homo sapiens, HeLa): 26.3%
IC50 ([5]; Homo sapiens, HeLa): 28.3 ± 2.2 µM
viability at 1.56 µM ([6]; Homo sapiens): 100%
viability at 3.125 µM ([6]; Homo sapiens): 100%
viability at 6.25 µM ([6]; Homo sapiens): 92.7%
viability at 12.5 µM ([6]; Homo sapiens): 67.2%
viability at 25 µM ([6]; Homo sapiens): 58.1%
viability at 50 µM ([6]; Homo sapiens): 47.8%
viability at 100 µM ([6]; Homo sapiens): 32.9%
IC50 ([6]; Homo sapiens): 41.5 ± 2.6 µM
